The data set is described as follows: in vitro. Conditions: human, hela cells, % viability.

Broadly, the viability is a read-out of living cells in per cent, often relative to untreated cells.

As to `O=C(Nc1cccc(Cl)c1)Nc1ccccc1NC(=O)Nc1cccc(Cl)c1` [CBK267624], the viability at 28.5 h, 10 µM was determined as 92.4%.
With `O=C(CCSc1nc(-c2ccco2)cc(C(F)(F)F)n1)N1CCN(c2ccccn2)CC1` [CBK267626], the viability at 28.5 h, 10 µM was 99%.
Same read-out and setting: the result for `O=C(CCSc1nc(-c2ccco2)cc(C(F)(F)F)n1)Nc1ccc2c(c1)OCO2` [CBK267627] reads 104%; that for `COc1ccc(-c2cc(C(F)(F)F)nc(SCC(=O)N(C)c3ccccc3)n2)cc1OC` [CBK267628], 112%; that for `Cc1ccc(O)c(NC(=O)c2nc3ncccn3n2)c1` [CBK267629], 99.6%.
On the same count and under the same terms, next, `CCOC(=O)c1c(NC(=O)c2nc3ncccn3n2)sc(C)c1C` [CBK267630]: 114%; `Cc1nn(Cc2cccc(Oc3ccccc3)c2)c(C)c1NC(=O)c1nc2ncccn2n1` [CBK267632]: 89%.
The same measure, in the same setting: next, `Cc1ccccc1Cn1nc(C)c(NC(=O)c2nc3n(n2)C(C(F)F)CC(C)N3)c1C` (centres unmarked) [CBK267633]: 92.6%; `Cc1nn(Cc2c(F)cccc2Cl)c(C)c1NC(=O)c1cnn2c(C(F)F)cc(-c3ccccc3)nc12` [CBK267634]: 95.3%; `O=C(O)c1cc2ncc(CCO)cn2n1` [CBK267635]: 99.6%.
As for `O=C(NCC1CCNCC1)c1ccncc1` [CBK267637C], the viability at 28.5 h, 10 µM stood at 95%.
Still for that read-out and setting: next, `O=C(NCCCO)c1cc2ccccc2[nH]1` [CBK267638]: 87.9%; `NCCCNC(=O)c1cc2ccccc2[nH]1` [CBK267639]: 88.4%; `O=C(Cn1c(=O)oc2ccccc21)Nc1cccc(C(=O)O)c1` [CBK267641]: 97.4%.
The same measure, in the same setting: next, `O=C(CCn1cnc2ccccc2c1=O)Nc1ccc(S(=O)(=O)N2CCCC2)cc1` [CBK267642]: 93%; `CC1CCCC(C)N1S(=O)(=O)c1ccc(NC(=O)CCn2cnc3ccccc3c2=O)cc1` (centres unmarked) [CBK267643]: 95.5%.
The same measure, in the same setting: next, `Cc1ccc([N+](=O)[O-])cc1NC(=O)CCn1cnc2ccccc2c1=O` [CBK267644]: 106%; `O=C(CCn1cnc2ccccc2c1=O)Nc1ccc(S(=O)(=O)N2CCOCC2)cc1` [CBK267645]: 98.9%; `CCn1c(COc2ccc(C(=O)O)cc2)nc2ccccc21` [CBK267647]: 91.7%.
With `NC(=O)Cn1cc(C(=O)COc2ccccc2)c2ccccc21` [CBK267650], the viability at 28.5 h, 10 µM (bulk resorufin, single well) came out at 95.2%.
For `O=C(Cn1cc(C(=O)COc2ccccc2)c2ccccc21)Nc1ccccc1` [CBK267653], the viability at 28.5 h, 10 µM amounted to 110%.
On the same count and under the same terms, the result for `COC(=O)CN(c1ccc(Cl)cc1Cl)S(C)(=O)=O` [CBK267654] reads 105%; that for `COC(=O)c1ccc(NC(=O)CN(c2ccc(F)c(Cl)c2)S(C)(=O)=O)cc1` [CBK267657], 88.3%.
Still for that read-out and setting: next, `O=C(COc1ccccc1)c1cn(CC(=O)N2CCc3ccccc32)c2ccccc12` [CBK267659]: 93.5%.
Regarding `Cc1c(C(=O)Nc2nc(-c3ccc(S(=O)(=O)N4CCOCC4)cc3)cs2)oc2ccc(Cl)cc12` [CBK267663], the viability at 28.5 h, 10 µM was found to be 93.7%.
Regarding `Cc1ccccc1-c1nc(S(=O)(=O)c2ccc(Cl)cc2)c(NCC2CCCO2)o1` (centres unmarked) [CBK267668], the viability at 28.5 h, 10 µM was determined as 113%.
In the case of `O=S(=O)(c1ccccc1)c1nc(-c2ccco2)oc1NCCCn1ccnc1` [CBK267670], the viability at 28.5 h, 10 µM worked out at 87.1%.
For the compound `O=S(=O)(c1ccc(F)cc1)c1nc(-c2cccs2)oc1N1CCN(Cc2ccccc2)CC1` [CBK267672], the viability at 28.5 h, 10 µM amounted to 89.7%.
Take `COc1ccc(C2CC(c3nc4ccccc4[nH]3)=NN2C(=O)CCN2CCCCC2)cc1` (centres unmarked) [CBK267673]: the viability at 28.5 h, 10 µM amounted to 99.8%.
With `Cc1nonc1OCCN1CCN(c2cc3c(cc2[N+](=O)[O-])n(C)c(=O)n3C)CC1` [CBK267676], the viability at 28.5 h, 10 µM stood at 104%.
On to `CC(=O)Nc1ccccc1NC(=O)CCCN1C(=O)CCC1=O` [CBK267681], for which the viability at 28.5 h, 10 µM amounted to 92.8%.
Still for that read-out and setting: the result for `CN(CC(=O)O/N=C(\N)c1cccnc1)S(=O)(=O)c1ccccc1` [CBK267684] reads 94.3%; that for `NC(=O)CSc1nnc(COc2cccc(Cl)c2)n1-c1ccccc1` [CBK267685], 88.9%; that for `O=C(Cn1c(=O)oc2ccccc21)Nc1ccc(S(=O)(=O)Nc2nccs2)cc1` [CBK267686], 80.2%.
`Nc1nnc(SCCN2C(=O)c3ccccc3S2(=O)=O)s1` [CBK267688]: the viability at 28.5 h, 10 µM was found to be 88.6%.
On the same count and under the same terms, next, `CC(=O)Nc1ccc(S(=O)(=O)NC2(C(F)(F)F)NC(=O)N(c3ccc(Cl)cc3)C2=O)cc1` (centres unmarked) [CBK267689]: 95.7%.
The same measure, in the same setting: the result for `Cc1ccc(-c2cnc3ccccc3n2)cc1NC(=O)c1ccccc1S(=O)(=O)c1ccc([N+](=O)[O-])cc1` [CBK267690] reads 110%.
Turning to `O=C(CSc1nnc(-c2ccccc2Cl)[nH]1)c1ccc(O)c(O)c1` [CBK267693], the viability at 28.5 h, 10 µM came out at 78.3%.
`c1ccc2[nH]c(CCCCCc3nc4ccccc4[nH]3)nc2c1` [CBK267694]: the viability at 28.5 h, 10 µM amounted to 107%.
`COc1ccc(CNC(=O)C2CC=CCC2C(=O)O)cc1OC` (centres unmarked) [CBK267695]: the viability at 28.5 h, 10 µM was 86.6%.
`CN(C)S(=O)(=O)NNC(=O)c1c[nH]c2ccccc12` [CBK267698]: the viability at 28.5 h, 10 µM amounted to 102%.
Same read-out and setting: the result for `CC(N)C(=O)Nc1ccccc1-c1ccccc1` (centres unmarked) [CBK267700] reads 98.7%; that for `CC(C)(O)C#Cc1ccccc1C(=O)NC(Cc1c[nH]c2ccccc12)C(=O)O` (centres unmarked) [CBK267701], 80.4%; that for `O=C(NC(Cc1ccccc1)C(=O)O)c1ccc(C#CC2(O)CCCCC2)cc1` (centres unmarked) [CBK267702], 93%.
Same read-out and setting: the result for `CC(C)(O)C#Cc1ccc(C(=O)NC(Cc2c[nH]c3ccccc23)C(=O)O)cc1` (centres unmarked) [CBK267703] reads 96.5%; that for `CC(C)(O)C#Cc1ccc(C(=O)NCCC(=O)O)s1` [CBK267704], 97.1%.
On the same count and under the same terms, the result for `Cn1c(=O)c2c(ncn2CCCN)n(C)c1=O` [CBK267707C] reads 91.8%.
As to `Cn1c(=O)c2c(nc(N3CCOCC3)n2CC/N=C2/CCCCCN2)n(C)c1=O` [CBK267708C], the viability at 28.5 h, 10 µM was found to be 85.7%.
Same read-out and setting: the result for `Cc1sc(C(=O)Nc2ccc3ccccc3c2)cc1CC(=O)O` [CBK267710] reads 96.4%.
Same read-out and setting: the result for `Nc1ccc(/C=C/c2cccc(C(=O)O)n2)cc1` [CBK267711] reads 89.7%.
On to `CN(C)CCn1c2c(c3ccccc31)CCCn1cnnc1-2` [CBK267712C], for which the viability at 28.5 h, 10 µM is 97.2%.
The same measure, in the same setting: the result for `CCCCOc1ccc(-c2nc(SCC(=O)O)c3c4c(sc3n2)COC(C)(C)C4)cc1` [CBK267716] reads 99.1%; that for `Cc1c(Cl)ccc2c(C(=O)Nc3ccc(S(=O)(=O)N4CCOCC4)cc3)cc(-c3cccnc3)nc12` [CBK267718], 85.5%.
In the case of `O=C(c1cc(-c2ccncc2)nc2ccc(Cl)cc12)N1CCN(CCc2ccccc2)CC1` [CBK267719], the viability at 28.5 h, 10 µM was found to be 86.6%.
Still for that read-out and setting: the result for `O=C(Nc1ccc(S(=O)(=O)Nc2nccs2)cc1)c1cc(-c2cccnc2)nc2ccc(Cl)cc12` [CBK267721] reads 105%; that for `Cc1cc(C)c2nc(-c3ccccn3)cc(C(=O)Nc3cccc(Cn4cccn4)c3)c2c1` [CBK267723], 90.4%; that for `Cc1cc(C)c2nc(-c3cccnc3)cc(C(=O)N3CCN(S(=O)(=O)c4ccc(F)cc4)CC3)c2c1` [CBK267726], 95%.
On to `CCNS(=O)(=O)c1ccc(NC(=O)c2cc(-c3ccccn3)nc3c(C)c(C)ccc23)cc1` [CBK267733], for which the viability at 28.5 h, 10 µM stood at 97.3%.
As to `Cc1ccc(-c2cc(C(=O)NCCCN3CCOCC3)c3cc(Cl)ccc3n2)o1` [CBK267737], the viability at 28.5 h, 10 µM came to 108%.
Still for that read-out and setting: next, `COc1ccc(S(=O)(=O)N2CCN(C(=O)c3cc(-c4ccncc4)nc4c(C)c(Cl)ccc34)CC2)cc1` [CBK267739]: 92.6%; `Cc1sc(NC(=O)c2cc(-c3ccncc3)nc3ccc(Cl)cc23)c(C#N)c1C` [CBK267742]: 87.7%; `Cc1ccc(-c2cc(C(=O)Nc3ccc(S(N)(=O)=O)cc3)c3ccc(Cl)c(C)c3n2)cc1` [CBK267745]: 111%.
On the same count and under the same terms, the result for `COc1ccc(NC(=O)c2cc(-c3cccnc3)nc3c(C)c(C)ccc23)c(OC)c1` [CBK267746] reads 96.2%; that for `Cc1ccc2c(C(=O)Nc3sc4c(c3C(N)=O)CCCCC4)cc(-c3ccccn3)nc2c1C` [CBK267749], 94%.
On to `COC(=O)c1ccsc1NC(=O)c1cc(-c2ccc(C)o2)nc2ccc(Br)cc12` [CBK267752], for which the viability at 28.5 h, 10 µM amounted to 86.7%.
Regarding `COc1ccc(-c2nc3ccc(C)cc3c(C(=O)NCCc3ccc(S(N)(=O)=O)cc3)c2C)cc1` [CBK267753], the viability at 28.5 h, 10 µM was 123%.
With `Cc1cc(C(F)(F)F)nn1CCCNC(=O)c1cc(-c2ccccc2)nc2ccccc12` [CBK267755], the viability at 28.5 h, 10 µM turned out to be 85%.
Consider `COc1ccc([N+](=O)[O-])cc1NC(=O)c1cc(-c2cccnc2)nc2ccc(C)cc12` [CBK267757], for which the viability at 28.5 h, 10 µM turned out to be 86.8%.
Same read-out and setting: the result for `O=C(Nc1ccccc1-c1ccccc1)c1cc(-c2ccncc2)nc2ccc(Cl)cc12` [CBK267759] reads 95%.
Take `COc1cccc(CN2CCN(C(=O)c3cc(-c4ccncc4)nc4ccc(C)cc34)CC2)c1` [CBK267760]: the viability at 28.5 h, 10 µM was 86%.
The same measure, in the same setting: next, `CC1CCc2c(sc(NC(=O)c3cc(-c4cccnc4)nc4ccc(Cl)cc34)c2C(N)=O)C1` (centres unmarked) [CBK267762]: 104%; `CC(C)c1cc(C(=O)N2CCOCC2)c(NC(=O)c2cc(-c3cccnc3)nc3ccc(Br)cc23)s1` [CBK267763]: 93.7%.
On the same count and under the same terms, the result for `COc1ccc([N+](=O)[O-])cc1NC(=O)c1cc(-c2ccccc2Cl)nc2ccc(C)cc12` [CBK267764] reads 94.1%.
On the same count and under the same terms, the result for `CCCc1cc(C(N)=O)c(NC(=O)c2cc(-c3ccc(C)o3)nc3ccccc23)s1` [CBK267766C] reads 90.9%.
